Experimental data as given in patent publication US12404304B1, “Telomerase reverse transcriptase (TERT) expression enhancing compounds and methods for using the same” (Sierra Sciences, LLC, priority 2007, dated 2025).
Like-named read-outs stand apart in the source and are kept apart here.

Legend:
viable cells in culture = assay: Cell viability assay (CellTiter-Glo Luminescent Cell Viability Assay, ATP quantitation, percent of vehicle control)
[1] = system: human TERT expression (hTERT mRNA); assay: Quantitative real-time RT-PCR of hTERT mRNA expression (Ct, transcripts) in compound-treated cells; format: cell-based
Outline: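 Read-out is cycle threshold, the cycle at which probe fluorescence released by Taq 5′-nuclease activity crosses a set level; Ct falls as hTERT mRNA rises. cDNA of treated and untreated cells was compared, with starting transcripts quantified against a known-cDNA standard curve.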

SMILES | Average Cell Viability after 24 Hours (% DMSO) (viable cells in culture) | Average Number of hTERT Transcripts ([1]; quantitative real-time RT-PCR) | Average Number of hTERT Transcripts [1]
CC(C)CN1CC23C=CC(O2)C(C(=O)OCc2ccccc2)C3C1=O (stereo not drawn) [compound 1347] | 118.20 % DMSO | 12.01 | 
Cc1csc(-n2nc(C)c(CCC(=O)Nc3ccc(Cl)cc3)c2O)n1 [compound 1134] | 87.25 % DMSO | 127.97 | 
CC(C)(C)C(=O)Nc1nc2c(Cl)c(Cl)ccc2s1 [compound 1446] | 65.61 % DMSO |  | 46.62
Cc1ccccc1OCC(=O)OCc1ccc([N+](=O)[O-])cc1 [compound 1548] | 99.62 % DMSO |  | 5.77
Brc1cccc(OCCCN2CCCCC2)c1 [compound 1380] | 104.34 % DMSO |  | 5.98
Cc1nc(-n2nc(C)c(CCC(=O)Nc3ccc(F)cc3)c2O)sc1C [compound 1138] | 87.23 % DMSO | 162.66 | 
CCCCNC(=O)c1cc(-c2ccc(F)cc2)on1 [compound 1181] | 85.44 % DMSO | 24.74 | 
CC1CCN(C(=O)CN(Cc2ccc(F)cc2)S(C)(=O)=O)CC1 [compound 1351] | 98.19 % DMSO | 5.17 | 
O=C(O)C1C2CCC(O2)C1C(=O)NCc1ccco1 (stereo not drawn) [compound 1222] | 102.27 % DMSO | 15.04 | 
Cc1ccc(N)cc1S(=O)(=O)N1CCCCC1 [compound 1341] | 110.20 % DMSO | 4.50 | 
Cc1ccn2c(-c3csc(Nc4ccc(C(=O)O)cc4)n3)c(C)nc2c1 [compound 1320] | 90.39 % DMSO | 8.00 | 
COc1ccc(CCNC(=O)c2cc(-c3cccs3)on2)cc1 [compound 1494] | 110.08 % DMSO |  | 9.18
CCCNC(=O)c1cc(-c2ccco2)on1 [compound 1190] | 96.27 % DMSO | 41.79 | 
CCCCc1c(C)nn(-c2nc3ccccc3[nH]2)c1O [compound 1111] | 47.04 % DMSO | 18.99 | 
COc1cc(CCNC(=O)c2cc(-c3cccs3)on2)ccc1O [compound 1520] | 98.51 % DMSO |  | 322.93
CCn1ncc([N+](=O)[O-])c1C(=O)Nc1sc2c(c1C#N)CCCCCC2 [compound 1325] | 94.20 % DMSO | 29.36 | 
CCOC(=O)COc1ccc(S(=O)(=O)Nc2ccc(C(=O)OC)cc2)cc1 [compound 1413] | 80.11 % DMSO |  | 25.20
O=S(=O)(c1cccc(F)c1)N1CCC(Oc2ccc(-n3cnnn3)cc2)CC1 [compound 1251] | 65.10 % DMSO | 23.22 | 
O=C(Nc1nc(-c2ccccn2)cs1)c1nc2ccccc2s1 [compound 1201] | 74.59 % DMSO | 49.55 | 
COc1cccc(/C=N/NC(=O)C2CC2c2ccccc2)c1O (stereo not drawn) [compound 1529] | 102.67 % DMSO |  | 29.94
CCC(=O)Nc1nnc(SCc2cc(=O)c3cccc(Cl)c3[nH]2)s1 [compound 1303] | 80.90 % DMSO | 4.51 | 
O=C(NCCCN1CCOCC1)c1cc(-c2cccs2)on1 [compound 1183] | 88.76 % DMSO | 37.61 | 
CCOC(=O)c1ccc(N2C(=O)c3[nH]nc(-c4ccco4)c3C2c2ccc(O)cc2)cc1 (stereo not drawn) [compound 1198] | 64.75 % DMSO | 104.02 | 
CCCCNC(=O)c1cc(-c2cccs2)on1 [compound 1197] | 88.24 % DMSO | 168.54 | 

SMILES | Average Cell Viability after 24 Hours (% DMSO) (viable cells in culture) | Average Number of hTERT Transcripts ([1]; quantitative real-time RT-PCR) | Average Number of hTERT Transcripts [1]
CCC(O)c1nc2ccccc2n1CCOc1cccc(OC)c1 (stereo not drawn) [compound 1253] | 91.13 % DMSO | 3.09 | 
CC1=NN(C(=O)c2cc(Br)ccc2O)C(O)(c2ccccc2)C1 (stereo not drawn) [compound 1319] | 61.93 % DMSO | 15.04 | 
COC(=O)CSc1nnc(-c2sc3cc(Cl)ccc3c2Cl)n1C [compound 1435] | 60.23 % DMSO |  | 48.10
COc1cc(NC(=O)CSc2ccc(-c3ccccn3)nn2)cc(OC)c1 [compound 1259] | 60.54 % DMSO | 10.70 | 
O=C(Cc1ccccc1)N/N=C/c1cccc2cccnc12 [compound 1286] | 75.11 % DMSO | 29.62 | 
CC(=O)Oc1ccc2c(=O)c(Oc3ccc4ccccc4c3)c(C(F)(F)F)oc2c1 [compound 1444] | 64.02 % DMSO |  | 16.54
Cc1nc(-n2nc(C)c(CC(=O)N3CCCCC3)c2O)sc1C [compound 1126] | 95.13 % DMSO | 75.66 | 
COC(=O)c1ccc(Cl)c2c1C1C=CCC1C(c1cccc(F)c1)N2 (stereo not drawn) [compound 1459] | 72.75 % DMSO |  | 11.14
COc1cc(C)ccc1OC1CCNCC1 [compound 1451] | 96.84 % DMSO |  | 5.80
COc1ccc(-c2cc(O)n(-c3ccc([N+](=O)[O-])cc3)n2)cc1 [compound 1106] | 79.49 % DMSO | 68.17 | 
Cc1ccc(-c2cc(C(=O)Nc3nc4ccc(S(C)(=O)=O)cc4s3)no2)cc1 [compound 1495] | 85.84 % DMSO |  | 10.81
O=C1CC(CSc2nnnn2-c2ccccc2)=NN1c1nc2ccccc2[nH]1 [compound 1119] | 62.38 % DMSO | 125.15 | 
CN(C(=O)c1cc2ccccc2oc1=O)C1(C)CCS(=O)(=O)C1 (stereo not drawn) [compound 1309] | 119.29 % DMSO | 10.58 | 
Cc1ccc(-c2cc(C(=O)NCCc3ccc(S(N)(=O)=O)cc3)no2)cc1 [compound 1487] | 95.31 % DMSO |  | 1.93
Cc1nc(-n2nc(C)c(CCC(=O)N3CCN(c4ccc(F)cc4)CC3)c2O)sc1C [compound 1136] | 90.51 % DMSO | 135.61 | 
Cc1ccc(S(=O)(=O)Nc2ccc([N+](=O)[O-])cc2)cc1 [compound 1535] | 88.02 % DMSO |  | 3.69
Cc1ccccc1NC(=O)C1CCN(S(=O)(=O)c2ccc(Br)cc2)CC1 [compound 1376] | 88.77 % DMSO |  | 4.72
COc1ccc(OC)c(NC(=O)C2C3CCC(O3)C2C(=O)O)c1 (stereo not drawn) [compound 1221] | 86.33 % DMSO | 68.62 | 
Cc1nn2c(=O)cc(CSc3nnnn3-c3ccccc3)[nH]c2c1-c1ccc(Cl)cc1 [compound 1163] | 70.88 % DMSO | 68.40 | 
COC(=O)CSC1=C(C#N)C(c2ccco2)C(C(=O)Nc2ccc(Cl)cc2)=C(C)N1 (stereo not drawn) [compound 1248] | 57.47 % DMSO | 4.69 | 
Cc1[nH]c2c(-c3ccc(Cl)cc3)cnn2c(=O)c1Cc1ccccc1 [compound 1146] | 63.23 % DMSO | 57.84 | 
Nc1c(C(=O)Nc2ccc(Cl)c(Cl)c2)sc2nc3c(cc12)CCCC3 [compound 1317] | 88.17 % DMSO | 10.56 | 
COC(=O)COc1ccc(NC(=O)c2cccc(C)c2)cc1 [compound 1537] | 67.92 % DMSO |  | 9.58
COc1ccc(C(NC(=O)CC(C)C)c2ccc3cccnc3c2O)cc1OC (stereo not drawn) [compound 1076] | 62.85 % DMSO | 61.45 | 
